Source: patent publication US20190046478A1, “BIOLOGICAL MARKER FOR IDENTIFYING CANCER PATIENTS FOR TREATMENT WITH A BIGUANIDE” (THE ROYAL INSTITUTION FOR THE ADVANCEMENT OF …, priority 2017, published 2019)
Like-named read-outs stand apart in the source and are kept apart here.

How the values were obtained:
[1] = test system: Eμ-Myc lymphoma cells; conditions: for Protection of viability of +17˜92 cells by pyruvate supplementation, lower doses / Protection of viability of +17˜92 cells by pyruvate supplementation, higher concentrations: 1 mM pyruvate, FIG. 5D, 10C; for Protection of viability of +17˜92 cells by pyruvate supplementation, lower doses: 10 μM Compound 1 or 30 μM phenformin; for Protection of viability of +17˜92 cells by pyruvate supplementation, higher concentrations: 100 μM Compound 1 or 300 μM phenformin
Procedure: (§1) Eμ-Myc cells were cultured on a layer of irradiated Ink4a-null MEF feeder cells in DMEM and IMDM medium (50:50 mix) supplemented with 10% fetal bovine serum (FBS), 20000 U/mL penicillin, 7 mM streptomycin, 2 mM glutamine, and β-mercaptoethanol. Raji cells were cultured in RPMI medium supplemented with 10% FBS, 20000 U/mL penicillin, 7 mM streptomycin, and 2 mM glutamine. Cells were grown at 37° C. in a humidified atmosphere supplemented with 5% (v/v) CO2.
(§2) Cells were seeded at a density of 1×10^5 cells/mL in 3.5 cm dishes, and cell counts determined via trypan blue exclusion using a TC20 Automated Cell Counter (Biorad). For viability measurements, cells were stained with Fixable Viability Dye eFluor 780 (eBioscience), and analyzed using a Gallios flow cytometer (Beckman Coulter, Fullerton, Calif.) and FlowJo software (Tree Star, Ashland, Oreg.).

[2] = test system: Raji cells; test: Cell viability assay in Raji lymphoma cells; type: cell-based, human; conditions: 48 hours, FIG. 3B
Procedure: as §1, §2

[3] = test system: Eμ-Myc cells; test: Seahorse XF96 respirometry (OCR and ECAR); type: cell-based, mouse; conditions: for Oxygen consumption of +17˜92 cells / Oxygen consumption of control cells: 100 μM phenformin or 10 μM Compound 1, after roughly four hours; for Oxygen consumption rate (OCR) / Extracellular acidification rate (ECAR): acute treatment, across a range of doses; for Oxygen consumption rate (OCR): FIG. 2A, 8A; for Extracellular acidification rate (ECAR): FIG. 2B, 8B; for IC50: after two hours treatment, read-out: Dose that produced a roughly 50% decrease in OCR from baseline
Procedure: 7.5×10^4 lymphoma cells were plated per well of an XF96 Seahorse plate in 140 μL of unbuffered DMEM containing 25 mM glucose and 2 mM glutamine, followed by centrifugation at 500×g for five minutes. Seahorse plates were pre-coated with poly-D-lysine (Sigma-Aldrich) to enhance cell adherence. XF assays consisted of sequential mix (3 min), pause (3 min), and measurement (5 min) cycles, allowing for determination of OCR and ECAR every […]. […] For media metabolite determination, cells were seeded at 1×10^5 cells/mL in 3.5 cm plates, and cultured for two days prior to harvesting medium. Culture medium was analyzed for extracellular metabolites (glucose and lactate) using a BioProfile Analyzer (NOVA Biomedical) and normalized to cell number.

[4] = test system: AMPK; test: Immunoblot for pAMPK (T172) and total AMPK; type: cell-based, mouse; conditions: two hours, 100 μM phenformin or 10 μM Compound 1, FIG. 3C
From the text: Lymphoma cell lines were subjected to SDS-PAGE and immunoblotting using CHAPS and AMPK lysis buffers. Primary antibodies against β-actin, 4EBP (total, phospho-T36/47, and phospho-S65), rS6 (total and p S235/236), Raptor (total and pS792), and AMPKα (total and phospho-T172) were obtained from Cell Signaling Technology (Danvers, Mass.). Primary antibody against LKB1 (Ley 37D/G6) was obtained from Santa Cruz Biotechnology (Dallas, Tex., USA). For qPCR quantification of mature miRNAs, Qiazol was used isolate RNA, miRNEasy Mini kit was used to purify miRNAs and total mRNA, and cDNA synthesized using the miScript II RT kit (Qiagen). Quantitative PCR was performed using the SensiFAST SYBR Hi-ROX kit (Bioline) and an AriaMX Real-Time PCR system (Agilent Technologies). miScript primer assays (Qiagen) were used to detect mature miRNAs of the miR-17˜92 cluster, with miRNA expression normalized relative to U6 RNA levels.

[5] = test system: Eμ-Myc cells; test: GC-MS analysis of metabolite abundance and 13C-glutamine labelling; type: cell-based, mouse; conditions: for 13C-glutamine incorporation into glutamate and α-ketoglutarate, +17˜92 versus treated control cells: 100 μM phenformin or 10 μM Compound 1, FIG. 4B; for Aspartate abundance: +17˜92 and control cells, 2 hours, 100 μM phenformin or 10 μM Compound 1, FIG. 4A
Procedure: Cellular metabolites were extracted and analyzed by GC-MS. […] Cells were washed twice with saline, then lysed in ice-cold 80% methanol and sonicated. For GC-MS analysis, D-myristic acid (750 ng/sample) was added to metabolite extracts as an internal standard prior to drying samples under a N2 stream. […] The oven program for all metabolite analyses started at 60° C. held for 1 min, then increasing at a rate of 10° C./min until 320° C. Bake-out was at 320° C. for 10 min. […] Mass isotopomer distribution for TCA cycle intermediates was determined using a custom algorithm developed at McGill University. After correction for natural ^13C abundances, a comparison was made between non-labeled (^12C) and ^13C-labeled abundances for each metabolite. Metabolite abundance was expressed relative to the internal standard (D-myristic acid) and normalized to cell number.

[6] = test system: Eμ-Myc cells; test: Mitochondrial ROS by MitoSox staining and flow cytometry; type: cell-based, mouse; conditions: 2 hours, 100 μM phenformin or 10 μM Compound 1, FIG. 5A
From the text: Statistics for all figures are as follows: *, p<0.05; **, p<0.01; ***, p<0.001.

[7] = test system: Eμ-Myc cells; test: LC-MS analysis of GSH/GSSG, NADP+/NADPH and NAD+/NADH ratios; type: cell-based, mouse; conditions: 2 hours
Procedure: Aqueous supernatants were dried by vacuum centrifugation with sample temperature maintained at −4° C. (Labconco, Kansas City Mo., USA). Pellets were subsequently resuspended in 25 μL of H2O as the injection buffer. Chromatographic separation was performed on a Scherzo SM-C18 column 3 μm, 3.0×150 mm (Imtakt Corp, JAPAN). The chromatographic gradient started at 100% mobile phase A (0.2% formic acid in water) with a 2 min hold followed with a 6 min gradient to 80% B (0.2% formic acid in MeOH) at a flow rate of 0.4 mL/min. This was followed by a 5 min hold time at 100% mobile phase B and a subsequent re-equilibration time (6 min) before next injection. […] Analyte ionization was accomplished using ESI in positive ionization mode. […] MS data were acquired in full scan mode mass range: m/z 100-1000; scan time: 1.4 s; data collection: centroid and profile modes. […] For all LC/MS analyses, 1 μL of sample was injected. The column temperature was maintained at 10° C. Data were quantified by integrating the area under the curve of each compound using MassHunter Quant (Agilent Technologies, Santa Clara, Calif., USA). Each metabolite's accurate mass ion was extracted (EIC) using a 10 ppm window. Relative concentrations were determined from external calibration curves.

[8] = test system: Eμ-Myc lymphoma cells (control or +17˜92); test: Tumor xenograft assay, survival of nude mice injected with lymphoma cells; type: in vivo, CD-1 nude mice; conditions: drinking water ad lib, 0.9 mg/mL phenformin or 0.8 mg/mL Compound 1, FIG. 6B
Procedure: Lymphoma cells were resuspended in HBSS at a concentration of 5×10^6 cells/mL, and 10^6 cells/200 μL were injected intravenously into CD-1 nude mice (Charles River).

[9] = 100 μM phenformin or 10 μM Compound 1, FIG. 5C

Row | SMILES | Protection of viability of +17˜92 cells by pyruvate supplementation, lower doses ([1]; 48 hours) | Protection of viability of +17˜92 cells by pyruvate supplementation, higher concentrations ([1]; 48 hours) | Viability of Raji cells with or without miR-17˜92 overexpression over a range of doses [2] | Oxygen consumption of +17˜92 cells [3] | Oxygen consumption of control cells [3] | Oxygen consumption rate (OCR) [3] | Extracellular acidification rate (ECAR) [3] | AMPK phosphorylation in +17˜92 cells [4] | 13C-glutamine incorporation into glutamate and α-ketoglutarate, +17˜92 versus treated control cells [5] | Aspartate abundance [5] | Mitochondrial ROS in +17˜92 cells [6] | Mitochondrial ROS levels in control cells [6] | Lifespan of mice bearing +17˜92 cells [8] | further results
1 | N=C(NC(=N)N1CCCC1)Nc1cccc(OC(F)(F)F)c1 [Compound 1, N1-pyrrolidine-N5-(3-trifluoromethoxy)phenyl biguanide] | some protective benefit | not apparent | followed a similar trend, albeit at higher doses | never eliminated | effectively non-respiring | decreased | commensurate increases | largely unaffected | more significant reduction | reduced aspartate abundance | significantly increased mitochondrial ROS | neither phenformin nor Compound 1 treatment were sufficient to increase | significantly prolonged the lifespan | Viability of +17˜92 cells at doses not toxic in control cells ([1]; 48 hours, FIG. 3A): viability of +17˜92 cells was affected; IC50 [3]: 10 µM; Speed of OCR reduction versus equivalent doses of phenformin ([3]; higher doses, 5 min post-injection, FIG. 2C): more rapid reductions in OCR; Extent of OCR reduction versus equivalent doses of phenformin ([3]; lower doses, longer time periods (260 min), FIG. 2D): more profound reductions in OCR; GSH/GSSG ratio ([7]; 100 μM phenformin or 10 μM Compound 1, FIG. 5B): no significant changes; NADP+/NADPH ratio in +17˜92 cells [7, 9]: increase their NADP+/NADPH ratio; NADP+/NADPH ratio in control cells [7, 9]: not control cells
2 | [H]/N=C(/N)N/C(=N/[H])NCCc1ccccc1 [phenformin, reference compound] | some protective benefit | not apparent | followed a similar trend, albeit at higher doses | never eliminated | effectively non-respiring | decreased | commensurate increases | reduced AMPK phosphorylation than control cells | not | reduced aspartate abundance | approached significance | neither phenformin nor Compound 1 treatment were sufficient to increase | significantly prolonged the lifespan | Viability of Δ/Δ (miR-17˜92 deleted) versus fl/fl cells ([1]; 48 hour treatment, FIG. 1A): more resistant; Sensitivity (viability) of +17˜92 versus control Eμ-Myc lymphoma cells ([1]; 48 hours, FIG. 1C): significantly more sensitive than controls; IC50 ([3]; Mus musculus, 2 h): 100 µM
